Test results published in PMC11249637, “Interaction of the Atypical Tetracyclines Chelocardin and Amidochelocardin with Renal Drug Transporters” (ACS Pharmacology & Translational Science, 2024).

What was measured:
mOat2 = target: T1, mOat2 (Mus musculus, UniProt Q91WU2); experiment: Two-point inhibition of mOat2-mediated cGMP uptake in transfected HEK293 cells; type: in vitro ADME; conditions: cGMP 10 μM, 5 min, read-out: inhibitory effect on mOat2
T1 construct: expressed in transfected cells; host or cells: HEK293
T1 sequence (Q91WU2 1-540): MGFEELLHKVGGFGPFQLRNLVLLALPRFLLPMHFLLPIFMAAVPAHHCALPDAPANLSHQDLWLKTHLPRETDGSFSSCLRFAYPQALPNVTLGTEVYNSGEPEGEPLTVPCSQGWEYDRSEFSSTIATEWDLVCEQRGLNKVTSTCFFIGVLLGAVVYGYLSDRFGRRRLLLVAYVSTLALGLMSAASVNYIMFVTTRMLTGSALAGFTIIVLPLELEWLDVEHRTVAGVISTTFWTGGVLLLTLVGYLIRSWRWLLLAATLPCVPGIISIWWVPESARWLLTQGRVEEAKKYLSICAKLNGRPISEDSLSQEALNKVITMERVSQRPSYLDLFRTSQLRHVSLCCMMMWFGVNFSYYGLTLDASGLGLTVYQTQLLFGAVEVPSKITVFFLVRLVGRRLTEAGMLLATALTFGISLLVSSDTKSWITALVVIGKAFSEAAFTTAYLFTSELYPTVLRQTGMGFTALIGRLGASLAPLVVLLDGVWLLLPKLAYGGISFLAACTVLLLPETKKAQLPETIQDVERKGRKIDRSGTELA
Method: (§1) Well-characterized mOct1-, mOct2-, mOat1-, mOat2-, mOat3-, mMate1-, hOAT1-, hOAT3-, hOAT4-, hMRP2-, mMdr1a- and mMdr1b-transfected HEK293 cells and the respective vector-transfected control HEK293 cells were used.[42],[51],[52] All HEK293 cells (transporter-transfected and vector-transfected) were cultured in DMEM (Sigma, high glucose, 10% FBS, 1% penicillin (10,000 Units/mL)/streptomycin (10 mg/mL)) at 37°C under 5% CO2 in humidified atmosphere. The cells were routinely checked for the absence of mycoplasma infection. For the preparation of HEK293 cell monolayers, 24-well plates were pretreated with a poly-D-lysine hydrobromide solution (0.1 mg/mL). […]
(§2) For the uptake assay, the growth medium was aspirated, and each well was rinsed three times with 0.5 mL of incubation buffer (HBSS supplemented with 20 mM HEPES, pH 7.4) and incubated for 20 min at 37 °C. […] Cells were solubilized with 0.6 mL of 1N NaOH overnight and transferred into scintillation vials. ^3H and ^14C contents were measured after the addition of 2.5 mL of scintillator in a liquid scintillation counter.
(§3) The cellular protein amount was determined in parallel for each cell line (vector- and transporter-transfected) from six wells in a different 24-well reference plate using the Bradford method. […]
(§4) The inhibitory effect (I(%)) was calculated according to the formula: [drawing 5] […]

[1] = set-up: method as in PMID 38047701; conditions: PK samples; cited from earlier work
mMate1 = target: T2, mMate1 (Mus musculus, UniProt Q8K0H1); experiment: Two-point inhibition of mMate1-mediated metformin uptake in transfected HEK293 cells; type: in vitro ADME; conditions: 1 and 10 μM; metformin 20 μM, 1 min
T2 construct: expressed in transfected cells; host or cells: HEK293
T2 sequence (Q8K0H1 1-567): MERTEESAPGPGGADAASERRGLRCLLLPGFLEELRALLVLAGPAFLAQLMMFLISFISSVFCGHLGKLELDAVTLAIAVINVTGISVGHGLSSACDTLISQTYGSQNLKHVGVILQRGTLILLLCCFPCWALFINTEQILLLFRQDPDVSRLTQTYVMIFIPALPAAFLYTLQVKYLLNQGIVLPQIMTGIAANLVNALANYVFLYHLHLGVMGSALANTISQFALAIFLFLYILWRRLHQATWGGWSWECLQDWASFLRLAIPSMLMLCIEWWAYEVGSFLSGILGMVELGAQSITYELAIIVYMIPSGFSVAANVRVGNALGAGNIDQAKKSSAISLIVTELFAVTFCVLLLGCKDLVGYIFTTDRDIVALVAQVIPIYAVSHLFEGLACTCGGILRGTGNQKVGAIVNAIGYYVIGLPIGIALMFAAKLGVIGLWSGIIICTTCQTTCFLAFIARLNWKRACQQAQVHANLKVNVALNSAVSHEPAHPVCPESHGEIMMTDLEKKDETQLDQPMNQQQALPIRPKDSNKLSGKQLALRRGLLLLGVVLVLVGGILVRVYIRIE
Method: as §1, §2, §3, §4

| Structure (SMILES) | inhibition at 10 µM (mOat2) [%] | irreversible toxicity in histopathological analysis of kidneys and livers (in words) [1] | inhibitory effect on mMate1 (in words) (mMate1) |
| --- | --- | --- | --- |
| Cc1ccc2c(C)c3c(c(O)c2c1O)C(=O)[C@@]1(O)C(=O)C(C(N)=O)=C(O)[C@@H](N)[C@H]1C3 [CDCHD, amidochelocardin] | ~100 | has not been observed | did not have major effects |
| CC(=O)C1=C(O)[C@@H](N)[C@H]2Cc3c(c(O)c4c(O)c(C)ccc4c3C)C(=O)[C@@]2(O)C1=O [CHD, chelocardin] | ~100 | has not been observed | weak inhibitory effect |
